# Laboratory results reported in patent US20230025880A1, “FUSED TRICYCLIC COMPOUND AND MEDICINAL USE THEREOF” (JAPAN TOBACCO INC., priority 2020, published 2023).
# Target: T1, human PDHK2 (hPDHK2) (Homo sapiens, UniProt Q15119)
# T1 construct: made in house; host or cells: Escherichia coli BL21(DE3), pET-17b vector
# Assay: Inhibitory action of PDHK2 activity (residual PDH activity, NADH absorbance at 340 nm)
# Assay type: biochemical
# Conditions: for IC50: PDH/hPDHK2 complex, PDHK reaction 45 min at room temperature; for inhibition at 0.1 µM: given when IC50 value could not be calculated, read-out: hPDHK2 inhibitory rate
# Method: In the case of human PDHK2 (hPDHK2, NCBI Reference Database Accession number NM_002611.4), modified hPDHK2 cDNA wherein FLAG-Tag sequence was added to the N terminus of hPDHK2 cDNA clone (pReceiver-M01/PDK2-GeneCopoeia) as the base was prepared by polymerase chain reaction (PCR) and ligated to the NdeI/EcoRI site of pET-17b vector (Merck KGaA, Catalog Number 69663-3). The recombinant construct was transformed into Escherichia coli DH5α. The recombinant clones were identified, and plasmid DNA was isolated and subjected to the DNA sequence analysis. One clone which had the expected nucleic acid sequence was selected for expression work.
# For expression of hPDHK2 activity, Escherichia coli strain BL21(DE3) cells (Merck KGaA, Catalog Number 69450-4) were transformed with the pET17b vector containing modified hPDHK2 cDNA. The Escherichia coli were grown to an optical density 0.6 ([…]) at 30° C. Protein expression was induced by the addition of 500 μmol/L isopropyl-β-thiogalactopyranoside. The Escherichia coli were cultured at 20° C. for 17-18 hr and harvested by centrifugation. The harvested Escherichia coli was resuspended in a suspension buffer (20 mmol/L HEPES-NaOH, 500 mmol/L sodium chloride, 1% ethylene glycol, 0.1% Pluronic (registered trademark) F-68 (pH 8.0), cOmplete, EDTA-free (Roche) (pH 8.0)), and disrupted by a microfluidizer M-110H (MIZUHO INDUSTRIAL CO., LTD.). The precipitate was removed by centrifugation and the supernatant was added to DDDDK-tagged Protein PURIFICATION GEL (MEDICAL & BIOLOGICAL LABORATORIES CO., LTD., Code No. 3329). DDDDK-tagged Protein PURIFICATION GEL was washed with a washing buffer (20 mmol/L HEPES-NaOH, 500 mmol/L sodium chloride, 1% ethylene glycol, 0.1% Pluronic F-68 (pH 8.0)) and the bound protein was eluted with elution buffer 1 (20 mmol/L HEPES-NaOH, 100 μg/mL peptide (amino acid sequence DYKDDDDK) (SEQ ID NO: 1), 500 mmol/L sodium chloride, 1% ethylene glycol, 0.1% Pluronic F-68 (pH 8.0)). The eluted fractions containing FLAG-Tagged protein were pooled, concentrated by an ultrafiltration method, added to a gel filtration column (HiLoad 26/60 Superdex 200 (GE Healthcare Life Sciences, Code No. 17-1070-01)), and eluted with elution buffer 2 (20 mmol/L HEPES-NaOH, 150 mmol/L sodium chloride, 0.5 mmol/L ethylenediaminetetraacetic acid (EDTA), 1% ethylene glycol, 0.1% Pluronic F-68 (pH 8.0)). The eluted fractions were pooled and preserved at −80° C.
# PDH (porcine heart PDH complex, Sigma P7032) and 0.5 μg/mL hPDHK2 were mixed in an assay buffer (50 mmol/L 3-morpholinopropanesulfonic acid (pH 7.0), 20 mmol/L dipotassium hydrogen phosphate, 60 mmol/L potassium chloride, 2 mmol/L magnesium chloride, 0.4 mmol/L EDTA, 0.2% poloxamer, 2 mmol/L dithiothreitol) so that the final concentration of PDH was 0.025 U/mL, and the mixture was incubated at 4° C. overnight to obtain a PDH/hPDHK2 complex solution.
# PDH was mixed with the assay buffer so that the final concentration was 0.025 U/mL, and the mixture was incubated at 4° C. overnight to prepare a PDH solution.
# The test compounds were diluted with DMSO. To measure an inhibitory action of the test compound on the PDHK activity in the PDH/hPDHK2 complex solution, PDH/hPDHK2 complex solution (20 μL), test compound (1.5 μL) and 1.06 μmol/L ATP (diluted with assay buffer) (8.5 μL) were added to a 384 well microplate (Greiner Bio-One 781801) and PDHK reaction was performed at room temperature for 45 min (test compound well). DMSO (1.5 μL) was added to control wells instead of test compound. In addition, DMSO (1.5 μL) was added to blank wells instead of the test compound, and PDH solution was added instead of the PDH/hPDHK2 complex solution. To measure an inhibitory action of the test compound on the PDHK activity inherent in the PDH solution, a test compound was added and the PDH solution instead of the PDH/hPDHK2 complex solution was added to a blank+test compound well. […]
SMILES,IC50,inhibition at 0.1 µM
C[C@H]1Cn2c(cnc2C(F)(F)F)-c2cnc([C@@](C)(O)C(F)(F)F)n21 [Example 7],7.5 nM,
C[C@H]1Cn2nccc2-c2cnc([C@@](C)(O)C(F)(F)F)n21 [Example 8],7.7 nM,
C[C@H]1Cn2c(nnc2C2CC2)-c2cnc([C@@](C)(O)C(F)(F)F)n21 [Example 14],6.3 nM,
Cc1nnc2n1C[C@H](C)n1c-2cnc1[C@@](C)(O)C(F)(F)F [Example 16],12 nM,
C[C@H]1Cn2nc(C(C)(C)C)cc2-c2cnc([C@@](C)(O)C(F)(F)F)n21 [Example 15],14 nM,
Cc1cc2n(n1)C[C@H](C)n1c-2cnc1[C@@](C)(O)C(F)(F)F [Example 9],13 nM,
"C[C@H]1Cc2cnc(C(F)(F)F)nc2-c2cnc([C@@](C)(O)C(F)(F)F)n21 (racemic) [Example 6, 1,1,1-trifluoro-2-(6-methyl-2-(trifluoromethyl)-5,6-dihydroimidazo[1′,5′:1,2]pyrido[3,4-d]pyrimidin-8-yl)propan-2-ol]",220 nM,
C[C@H]1Cn2nc(C(C)(O)C(F)(F)F)cc2-c2cnc([C@@](C)(O)C(F)(F)F)n21 (mixture of isomers) [Example 26],31 nM,
COc1ccc(COCc2cc3n(n2)C[C@H](C)n2c-3cnc2[C@@](C)(O)C(F)(F)F)cc1 [Example 33],29 nM,
"C[C@H]1Cc2c(C(F)(F)F)nn(C)c2-c2cnc([C@@](C)(O)C(F)(F)F)n21 (racemic) [Example 24, 2-(1,5-dimethyl-3-(trifluoromethyl)-4,5-dihydro-1H-imidazo[1,5-a]pyrazolo[3,4-c]pyridin-7-yl)-1,1,1-trifluoropropan-2-ol]",> 100 nM,31%
C[C@H]1Cn2ncc(Cl)c2-c2cnc([C@@](C)(O)C(F)(F)F)n21 [Example 11],34 nM,
C[C@H]1Cn2nc(C(=O)N(C)C)cc2-c2cnc([C@@](C)(O)C(F)(F)F)n21 [Example 22],12 nM,
C[C@H]1Cn2nc(Oc3ccc(C#N)cn3)cc2-c2cnc([C@@](C)(O)C(F)(F)F)n21 [Example 47],20 nM,
C[C@H]1Cn2nc(C3CC3)cc2-c2cnc([C@@](C)(O)C(F)(F)F)n21 [Example 10],13 nM,
C[C@H]1Cn2nc(OCCC(C)(C)O)cc2-c2cnc([C@@](C)(O)C(F)(F)F)n21 [Example 30],12 nM,
"C[C@H]1Cn2c(nnc2C(F)(F)F)-c2cnc([C@@](C)(O)C(F)(F)F)n21 [Example 2, (R)-1,1,1-trifluoro-2-((S)-6-methyl-3-(trifluoromethyl)-5,6-dihydroimidazo[1,5-a] [1,2,4]triazolo[3,4-c]pyrazin-8-yl)propan-2-ol]",26 nM,
CC[C@H]1Cn2nc(C(F)(F)F)cc2-c2cnc([C@@](C)(O)C(F)(F)F)n21 [Example 12],> 100 nM,35%
"C[C@H]1Cc2c(C3CC3)noc2-c2cnc([C@@](C)(O)C(F)(F)F)n21 (racemic) [Example 34, 2-(3-cyclopropyl-5-methyl-4,5-dihydroimidazo[1,5-a]isoxazolo[5,4-c]pyridin-7-yl)-1,1,1-trifluoropropan-2-ol]",21 nM,
"C[C@H]1Cc2ccccc2-c2cnc([C@@](C)(O)C(F)(F)F)n21 (racemic) [Example 1, 1,1,1-trifluoro-2-(5-methyl-5,6-dihydroimidazo[5,1-a]isoquinolin-3-yl)propan-2-ol]",16 nM,
C[C@H]1Cn2ncc(F)c2-c2cnc([C@@](C)(O)C(F)(F)F)n21 [Example 44],17 nM,

# More lines, now with the values ahead:
IC50,inhibition at 0.1 µM,SMILES
19 nM,,CC(=O)N1CCC(c2cc3n(n2)C[C@H](C)n2c-3cnc2[C@@](C)(O)C(F)(F)F)CC1 [Example 75]
9.5 nM,,C[C@H]1Cn2c(nnc2C(C)(C(F)(F)F)C(F)(F)F)-c2cnc([C@@](C)(O)C(F)(F)F)n21 [Example 100]
15 nM,,C[C@H]1Cn2c(nnc2C(C)(F)F)-c2cnc([C@@](C)(O)C(F)(F)F)n21 [Example 90]
10 nM,,CCC(F)(F)c1nnc2n1C[C@H](C)n1c-2cnc1[C@@](C)(O)C(F)(F)F [Example 59]
18 nM,,C[C@H]1Cn2nc(OCC3CN(C(=O)c4ccc(F)cc4)C3)cc2-c2cnc([C@@](C)(O)C(F)(F)F)n21 [Example 66]
15 nM,,C[C@H]1Cn2nc(OCC3CCN(C(=O)c4ccc(F)cc4)CC3)cc2-c2cnc([C@@](C)(O)C(F)(F)F)n21 [Example 69]
21 nM,,"C[C@H]1Cn2nc(OCC(C)(C)O)cc2-c2cnc([C@@](C)(O)C(F)(F)F)n21 [Example 52, (R)-1,1,1-trifluoro-2-((S)-9-(2-hydroxy-2-methylpropoxy)-5-methyl-5,6-dihydroimidazo[1,5-a]pyrazolo[5,1-c]pyrazin-3-yl)propan-2-ol]"
16 nM,,C[C@H]1Cn2nc(Oc3ccnc(C(F)(F)F)c3)cc2-c2cnc([C@@](C)(O)C(F)(F)F)n21 [Example 86]
13 nM,,C[C@H]1Cn2nc(OCC3CN(S(C)(=O)=O)C3)cc2-c2cnc([C@@](C)(O)C(F)(F)F)n21 [Example 65]
23 nM,,C[C@H]1Cn2nc(OCC(O)(C(F)(F)F)C(F)(F)F)cc2-c2cnc([C@@](C)(O)C(F)(F)F)n21 [Example 85]
26 nM,,CC(=O)N1CCC(Oc2cc3n(n2)C[C@H](C)n2c-3cnc2[C@@](C)(O)C(F)(F)F)CC1 [Example 71]
8.6 nM,,C[C@H]1Cc2cc(C#N)ccc2-c2cnc([C@@](C)(O)C(F)(F)F)n21 [Example 94]
18 nM,,C[C@H]1Cn2nc(Oc3ccc(C#N)nc3)cc2-c2cnc([C@@](C)(O)C(F)(F)F)n21 [Example 95]
27 nM,,"C[C@H]1Cc2c(C(F)(F)F)n[nH]c2-c2cnc([C@@](C)(O)C(F)(F)F)n21 (racemic) [Example 50, 1,1,1-trifluoro-2-(5-methyl-3-(trifluoromethyl)-4,5-dihydro-1H-imidazo[1,5-a]pyrazolo[3,4-c]pyridin-7-yl)propan-2-ol]"
17 nM,,C[C@H]1Cn2nc(OCC3(C#N)CC3)cc2-c2cnc([C@@](C)(O)C(F)(F)F)n21 [Example 51]
8.8 nM,,C[C@H]1Cn2nc(OC3CN(C(=O)c4ccc(F)cc4)C3)cc2-c2cnc([C@@](C)(O)C(F)(F)F)n21 [Example 58]
9.3 nM,,C[C@H]1Cn2c(-c3ccc(C(F)(F)F)cc3)nnc2-c2cnc([C@@](C)(O)C(F)(F)F)n21 [Example 54]
13 nM,,C[C@H]1Cn2nc(OCC(=O)N3CC(F)(F)C3)cc2-c2cnc([C@@](C)(O)C(F)(F)F)n21 [Example 53]
23 nM,,C[C@H]1Cn2nc(OCC3CCS(=O)(=O)CC3)cc2-c2cnc([C@@](C)(O)C(F)(F)F)n21 [Example 82]
6.8 nM,,CC(C)C(F)(F)c1nnc2n1C[C@H](C)n1c-2cnc1[C@@](C)(O)C(F)(F)F [Example 60]
13 nM,,C[C@H]1Cn2nc(OCCN3CCCS3(=O)=O)cc2-c2cnc([C@@](C)(O)C(F)(F)F)n21 [Example 76]
8.5 nM,,C[C@H]1Cn2c(nnc2C2(F)CC2)-c2cnc([C@@](C)(O)C(F)(F)F)n21 [Example 99]
14 nM,,C[C@H]1Cn2nc(O[C@@H]3CCOC3)cc2-c2cnc([C@@](C)(O)C(F)(F)F)n21 [Example 101]
